From article PMC12162873, “Modulating phosphatase DUSP22 with BML-260 ameliorates skeletal muscle wasting via Akt independent JNK-FOXO3a repression” (EMBO Molecular Medicine, 2025)
Where “and” joins values, the source holds several entries; their conditions need not be identical. Equal entries are not always repeated.

System: 24-26-month-old male C57BL/6 mice
Assay: Skeletal muscle aging model, BML-260 treatment
Format: in vivo, mouse
Design: Area / Feret / Feret, Average / Area, Average: unit not given here
Conditions: for Area / Feret: listed as BML
Method: To assess DUSP22 pharmacological targeting, BML-260 was treated to 24–26-month-old male C57BL/6 mice as follows: (1) vehicle alone (5% DMSO + 5% tween 80) and (2) 5 mg/kg BML-260 (n = 5 per group). Mice were treated via IP delivery every 24 h for 4 weeks and then assessed for skeletal muscle function and condition.
Grip strength was measured using the BIO-GS3 device (Bioseb, FL, USA). Mice were placed onto the grid with all four paws attached and gently pulled backwards to measure the grip strength until the grid was released. The maximum grip value, used to represent muscle force, was calculated using 3 trials with an interval of 30 s.
Muscle fatigue was measured the previously described protocol (Chiu et al, [2018]), with two different models using the Rotarod. One was the constant model and the other was the accelerating model that is inherent in the rotarod device. In brief, the mice were accommodated to training before the commencement of the fatigue task using an accelerating rotarod (Ugo Basile, Italy). The mice were trained at a constant speed of 13 rpm for 15 min. After a recovery period of 15 min, the mice were placed on the rotarod adjusted to accelerate from 13 to 25 rpm in 3 min for 15 min. 24 h later, the muscle fatigue test was carried out with speeds ramping from 13 to 25 rpm in 3 min, and maintained at 25 rpm for a 30 min interval. Latency to fall off the rotarod was measured for each mouse. A fatigued mouse was classified as falling off 4 times within a 1 min period, which also terminated the test.
Mice were anesthetized using ketamine (22 mg/kg; Yuhan, Republic of Korea) and xylazine (10 mg/kg; Bayer, Republic of Korea) in saline by IP injection. The quadriceps, gastrocnemius, soleus and TA muscles were then dissected and weighed. For histological analysis, the muscles were fixed by overnight incubation with 4% paraformaldehyde in PBS pH 7.4 at 4 °C. Paraffin sectioning and H&E staining were provided by the Animal Housing Facility, Gwangju Institute of Science and Technology, Republic of Korea (5 µm muscle sections using a Thermo Scientific HistoStar (Thermofisher). H&E staining was carried out with a kit (Merck, Germany)). For immunohistochemistry, TA muscle sections were permeabilized for 15 min (PBS with 0.5% Triton X-100), blocked for 1 h (5% BSA) and incubated with the primary antibody overnight at 4 °C (a list of primary and secondary antibodies used in this study are provided in Appendix Tables S4 and S5, respectively). After washing with PBS 3 times for 5 min, the sections were incubated with the secondary antibody at RT for 1 h. The nuclei were counterstained with DAPI in ProLong™ Gold Antifade Mountant (Invitrogen, P36935). Digital images were acquired with Leica DM 2500 (Leica Microsystems). Cross sectional area (CSA) and fiber size distribution was measured using the NIH imaging software Image J 64. To CSA and size distribution of different fiber types was calculated in 4 muscle section as follows: type 2 A: 30–40 fibers measured; type 2B: at least 100 fibers measured; type 2X: 30–40 fibers measured.

[1] = 5 mg/kg IP every 24 h for 4 weeks
[2] = S10.B, group average of 3 animals
[3] = S10.B, individual measurements, animal BML 1
[4] = S10.B, mean per animal (BML 1, BML4, BML5)

SMILES: O=C(O)c1ccc(N2C(=O)C(=Cc3ccccc3)SC2=S)cc1 (stereo in doubt) [BML-260]
- CSA and Feret's diameter of type 2A, 2B and 2X myofibers, TA and gastrocnemius [1]: increased
- DUSP22 levels in the TA muscle, western blot [1]: reduced DUSP22 levels
- body weight [1]: not significantly affected
- expression of PGC-1α, qPCR [1]: increased
- expression of atrogin-1 and MuRF-1 in the TA muscle, qPCR [1]: reduced
- expression of myostatin, qPCR [1]: reduced
- grip strength mean value [1]: increased by BML-260 treatment but did not reach statistical significance
- latency to fall in the rotarod test [1]: statistically increased
- mass of quadriceps, gastrocnemius, TA and soleus muscles [1]: increased the mean mass value of the quadriceps, gastrocnemius, TA and soleus muscles, and reached statistical significance for the TA and gastrocnemius muscles
- proportion of slow type 1 myofibers [1]: did not significantly affect
- Area, Average [2]: 2003.72
- Feret, Average [2]: 60.0894
- Area [3]: 2289.78 and 2476.44 and 2826.67 and 1960.89 and 2172.44 and 1594.67 and 2152.89 and 2090.67 and 1617.78 and 2085.33 and 2567.11
- Feret [3]: 75.248 and 68.56 and 66.573 and 63.175 and 60.296 and 56.506 and 57.366 and 56.056 and 52.173 and 66.306 and 72.271
- Area [4]: 2166.79 and 2165.89 and 1678.47
- Feret [4]: 63.1391 and 63.015 and 54.114
- DUSP22 expression, western blot quantification, Average (TA of aged mice (Fig EV4A), Young average = 1): 0.2806
- DUSP22 expression, western blot quantification (TA of aged mice (Fig EV4A), Young average = 1, individual animals): 0.2303 and 0.3985 and 0.213
- increase of grip strength (aged skeletal muscle): > 20%
